Ends that are not written are not given here.
How the values were obtained:
Experiment in all cases: Time-kill assay
Type in all cases: cell-based
[1] = test system: Escherichia coli ATCC 8739; settings: E. coli
Description: (§1) The survival of bacteria, time kill efficacy assay of IS 111 was further evaluated for activity against bacterial strain mentioned above according to CLSI reference method, with slightly modification. MICs were determined by broth microdilution assay as described above. […] Test tubes of MHB without test compound IS 111 were used as vehicle controls. Overnight cultures of the bacterial strains at cell densities of approximately 1×10^8 CFU/ml were used to inoculate both test and control tubes. The standard tube dilution method was opted to evaluate the time-kill efficacy of bacteria. Bacterial inoculum (1 mL) was diluted by adding 9 mL sterile saline solution and serially diluted up to 10^−3. […] 100 μL incubated suspension was transferred on the agar plates and spread through the spreader. Colony counts were performed after 24 h incubation at 37° C. Plates with 10-300 colonies were used for these counts, and the kill rate was determined by plotting log 10 viable counts (CFU/ml) against time. Bactericidal activity was defined as a ≥3 log 10 decreases in CFU/ml of the initial microbial population, while bacteriostatic activity was defined was defined as a <3 log 10 decrease in CFU/ml. The assay was performed in triplicate [Olufunmiso O Olajuyigbe et al., 2015; Sutthiwan Thammawat et al., 2017]
(§2) The time-kill kinetics antibacterial study of the Peptide IS 111 was carried out to assess the killing rate of the compound within a given contact time. The survival of bacteria, time kill efficacy assay of IS 111 was further evaluated for activity against Escherichia coli ATCC 8739 and Staphylococcus aureus ATCC 6538, Pseudomonas aeruginosa ATCC 9027 and Klebsiella pneumoniae ATCC 700603 according to CLSI reference method, with slightly modification. MICs were determined by broth microdilution assay as described above. […] 10. Test tubes of MHB without test compound Peptide IS 111 were used as vehicle controls. Overnight cultures of the bacterial strains at cell densities of approximately 1×10^6 CFU/ml were used to inoculate both test and control tubes.
(§3) After each interval, ten-fold dilutions were prepared with normal saline, and 100 μL incubated suspension was transferred on the agar plates and spread through the spreader. Colony counts were performed after 24 h incubation at 37° C. Plates with 10-300 colonies were used for these counts, and the kill rate was determined by plotting log 10 viable counts (CFU/ml) against time. Bactericidal activity was defined as a ≥3 log 10 decrease in CFU/ml of the initial microbial population, while bacteriostatic activity was defined as a <3 log 10 decrease in CFU/ml. The assay was performed in triplicate. The proportion of cells surviving at 60 min was calculated, as was the mean and standard deviation. Proportions of surviving cells were compared using Student's 2-tailed t-test, assuming unequal variance and differences were considered significant where p≤0.05.

[2] = test system: Klebsiella pneumoniae ATCC 700603; settings: K. pneumoniae
Description: as §1, §2, §3

[3] = test system: Pseudomonas aeruginosa ATCC 9027; settings: P. aeruginosa
Description: as §1, §2, §3

## FAKKFAK [IS 111, Phe-Ala-Lys-Lys-Phe-Ala-Lys]
[1]; 0.5 × MIC, 0 h
  Viable count: 6.4 ± 0.48 1 × 10^5 CFU/ml
[1]; 0.5 × MIC, 1 h
  Viable count: 5.5 ± 0.28 1 × 10^5 CFU/ml
[1]; 0.5 × MIC, 2 h
  Viable count: 5.0 ± 0.20 1 × 10^5 CFU/ml
[1]; 0.5 × MIC, 3 h
  Viable count: 4.2 ± 0.10 1 × 10^5 CFU/ml
[1]; 0.5 × MIC, 4 h
  Viable count: 3.7 ± 0.08 1 × 10^5 CFU/ml
[1]; 0.5 × MIC, 5 h
  Viable count: 2.9 ± 0.35 1 × 10^5 CFU/ml
[1]; 0.5 × MIC, 12 h
  Viable count: 2.5 ± 0.35 1 × 10^5 CFU/ml
[1]; 0.5 × MIC, 24 h
  Viable count: 2.3 ± 0.43 1 × 10^5 CFU/ml
[1]; 0.5×MIC (0.78 μg/ml), 24 h
  Reduction in viability: 2 log 10 CFU/ml
[1]; 0.5×MIC and 1×MIC, 24 h
  Type of activity (bacteriostatic or bactericidal): bacteriostatic
[1]; 1 × MIC, 0 h
  Viable count: 6.5 ± 0.10 1 × 10^5 CFU/ml
[1]; 1 × MIC, 1 h
  Viable count: 4.2 ± 0.45 1 × 10^5 CFU/ml
[1]; 1 × MIC, 2 h
  Viable count: 2.1 ± 0.38 1 × 10^5 CFU/ml
[1]; 1 × MIC, 3 h
  Viable count: 1.2 ± 0.28 1 × 10^5 CFU/ml
[1]; 1 × MIC, 4 h
  Viable count: 0.6 ± 0.20 1 × 10^5 CFU/ml
[1]; 1 × MIC, 5 h
  Viable count: 0.4 ± 0.10 1 × 10^5 CFU/ml
[1]; 1 × MIC, 12 h
  Viable count: 0.2 ± 0.08 1 × 10^5 CFU/ml
[1]; 1 × MIC, 24 h
  Viable count: 0 1 × 10^5 CFU/ml
[1]; 1×MIC
  Time to complete reduction of initial inoculum: 24 h
[1]; 5 × MIC, 0 h
  Viable count: 6.5 ± 0.23 1 × 10^5 CFU/ml
[1]; 5 × MIC, 1 h
  Viable count: 0.5 ± 0.05 1 × 10^5 CFU/ml
[1]; 5 × MIC, 2 h
  Viable count: 0.2 ± 0.05 1 × 10^5 CFU/ml
[1]; 5 × MIC, 3 h
  Viable count: 0 1 × 10^5 CFU/ml
[1]; 5 × MIC, 4 h
  Viable count: 0 1 × 10^5 CFU/ml
[1]; 5 × MIC, 5 h
  Viable count: 0 1 × 10^5 CFU/ml
[1]; 5 × MIC, 12 h
  Viable count: 0 1 × 10^5 CFU/ml
[1]; 5 × MIC, 24 h
  Viable count: 0 1 × 10^5 CFU/ml
[2]; 0.5 × MIC, 0 h
  Viable count: 4.8 ± 0.50 1 × 10^5 CFU/ml
[2]; 0.5 × MIC, 1 h
  Viable count: 4.2 ± 0.35 1 × 10^5 CFU/ml
[2]; 0.5 × MIC, 2 h
  Viable count: 3.4 ± 0.55 1 × 10^5 CFU/ml
[2]; 0.5 × MIC, 3 h
  Viable count: 2.9 ± 0.45 1 × 10^5 CFU/ml
[2]; 0.5 × MIC, 4 h
  Viable count: 2.1 ± 0.48 1 × 10^5 CFU/ml
[2]; 0.5 × MIC, 5 h
  Viable count: 1.7 ± 0.30 1 × 10^5 CFU/ml
[2]; 0.5 × MIC, 12 h
  Viable count: 1.5 ± 0.33 1 × 10^5 CFU/ml
[2]; 0.5×MIC (3.13 μg/ml), 24 h
  Reduction in viability: < 1 log 10 CFU/ml
[2]; 0.5×MIC, 24 h
  Type of activity (bacteriostatic or bactericidal): bacteriostatic
  Viable count: 0.8 ± 0.13 1 × 10^5 CFU/ml
[2]; 1 × MIC, 0 h
  Viable count: 5.1 ± 0.23 1 × 10^5 CFU/ml
[2]; 1 × MIC, 1 h
  Viable count: 4.0 ± 0.18 1 × 10^5 CFU/ml
[2]; 1 × MIC, 2 h
  Viable count: 1.9 ± 0.40 1 × 10^5 CFU/ml
[2]; 1 × MIC, 3 h
  Viable count: 1.2 ± 0.15 1 × 10^5 CFU/ml
[2]; 1 × MIC, 4 h
  Viable count: 0.6 ± 0.03 1 × 10^5 CFU/ml
[2]; 1 × MIC, 5 h
  Viable count: 0.5 ± 0.05 1 × 10^5 CFU/ml
[2]; 1 × MIC, 12 h
  Viable count: 0.2 ± 0.15 1 × 10^5 CFU/ml
[2]; 1 × MIC, 24 h
  Viable count: 0 1 × 10^5 CFU/ml
[2]; 1×MIC (6.25 μg/ml)
  Time to bacteriostatic activity: ≤ 24 h
[2]; 5 × MIC, 0 h
  Viable count: 5.6 ± 0.18 1 × 10^5 CFU/ml
[2]; 5 × MIC, 1 h
  Viable count: 1.8 ± 0.13 1 × 10^5 CFU/ml
[2]; 5 × MIC, 2 h
  Viable count: 0.9 ± 0.08 1 × 10^5 CFU/ml
[2]; 5 × MIC, 3 h
  Viable count: 0.6 ± 0.08 1 × 10^5 CFU/ml
[2]; 5 × MIC, 4 h
  Viable count: 0.4 ± 0.05 1 × 10^5 CFU/ml
[2]; 5 × MIC, 5 h
  Viable count: 0 1 × 10^5 CFU/ml
[2]; 5 × MIC, 12 h
  Viable count: 0 1 × 10^5 CFU/ml
[2]; 5 × MIC, 24 h
  Viable count: 0 1 × 10^5 CFU/ml
[2]; 5×MIC (31.25 μg/ml)
  Time to bacteriostatic activity: ≤ 5 h
[3]; 0.5 × MIC, 0 h
  Viable count: 6.3 ± 0.30 1 × 10^5 CFU/ml
[3]; 0.5 × MIC, 1 h
  Viable count: 5.4 ± 0.18 1 × 10^5 CFU/ml
[3]; 0.5 × MIC, 2 h
  Viable count: 4.9 ± 0.15 1 × 10^5 CFU/ml
[3]; 0.5 × MIC, 3 h
  Viable count: 4.1 ± 0.20 1 × 10^5 CFU/ml
[3]; 0.5 × MIC, 4 h
  Viable count: 3.5 ± 0.15 1 × 10^5 CFU/ml
[3]; 0.5 × MIC, 5 h
  Viable count: 2.8 ± 0.23 1 × 10^5 CFU/ml
[3]; 0.5 × MIC, 12 h
  Viable count: 2.4 ± 0.15 1 × 10^5 CFU/ml
[3]; 0.5×MIC (1.56 μg/ml), 24 h
  Reduction in viability: 1 log 10 CFU/ml
[3]; 0.5×MIC, 24 h
  Type of activity (bacteriostatic or bactericidal): bacteriostatic
  Viable count: 2.1 ± 0.25 1 × 10^5 CFU/ml
[3]; 1 × MIC, 0 h
  Viable count: 6.4 ± 0.15 1 × 10^5 CFU/ml
[3]; 1 × MIC, 1 h
  Viable count: 4.0 ± 0.30 1 × 10^5 CFU/ml
[3]; 1 × MIC, 2 h
  Viable count: 1.9 ± 0.20 1 × 10^5 CFU/ml
[3]; 1 × MIC, 3 h
  Viable count: 1.0 ± 0.08 1 × 10^5 CFU/ml
[3]; 1 × MIC, 4 h
  Viable count: 0.5 ± 0.08 1 × 10^5 CFU/ml
[3]; 1 × MIC, 5 h
  Viable count: 0.2 ± 0.05 1 × 10^5 CFU/ml
[3]; 1 × MIC, 12 h
  Viable count: 0.0 1 × 10^5 CFU/ml
[3]; 1 × MIC, 24 h
  Viable count: 0.0 1 × 10^5 CFU/ml
[3]; 1×MIC (3.13 μg/ml)
  Time to bacteriostatic activity: ≤ 12 h
[3]; 5 × MIC, 0 h
  Viable count: 6.4 ± 0.15 1 × 10^5 CFU/ml
[3]; 5 × MIC, 1 h
  Viable count: 0.4 ± 0.10 1 × 10^5 CFU/ml
[3]; 5 × MIC, 2 h
  Viable count: 0.0 1 × 10^5 CFU/ml
[3]; 5 × MIC, 3 h
  Viable count: 0.0 1 × 10^5 CFU/ml
[3]; 5 × MIC, 4 h
  Viable count: 0.0 1 × 10^5 CFU/ml
[3]; 5 × MIC, 5 h
  Viable count: 0.0 1 × 10^5 CFU/ml
[3]; 5 × MIC, 12 h
  Viable count: 0.0 1 × 10^5 CFU/ml
[3]; 5 × MIC, 24 h
  Viable count: 0.0 1 × 10^5 CFU/ml
